“Also recorded” adds a separate entry of the source.
Tests used:
[1] = test system: Membrane and cytosol fractions from bovine aortic endothelial cells; assay: Affinity chromatography of BAEC fractions on immobilized peptide; assay type: binding; set-up: key to Identification of binding partners by affinity chromatography: BAEC: ✓: Check marks indicate positive binding observed with FITC; −: a dash indicates a negative result; conditions: cell lysates
Protocol: (§1) Membrane and cytosol fractions from human bone marrow endothelial cells and bovine aortic endothelial cells were prepared and used to identify the components from within these fractions that bind to the peptides using affinity chromatography). […] Cell surface nucleolin is present at higher concentrations in actively dividing cells and is down regulated in cells when they become quiescent. Nucleolin is the apparent cell surface receptor of E-coli intimin-gamma. Cell bound intimin has been proposed to trigger a host cell response similar to the extension of filipodia when cells bind to laminin. […] Table 3 provides a summary of peptide-binding partners (putative receptors) identified by affinity chromatography of cell lysates.

[2] = test system: Membrane and cytosol fractions from human bone marrow endothelial cells; assay: Affinity chromatography of HBME fractions on immobilized peptide; assay type: binding; set-up: key to Identification of binding partners by affinity chromatography: HBME: ✓: Check marks indicate positive binding observed with FITC; −: a dash indicates a negative result; conditions: for Identification of binding partners by affinity chromatography: HBME: cell lysates
Protocol: as §1
Peptide Affinity Column Chromatography: Peptides identified from the phage display experiments in mouse bone and bone marrow were synthesized with an additional three-residue glycine linker and an N-terminal lysine residue. The lysine residue was used to specifically link the peptides to a support. Cell membranes from BMECs were solubilized with triton X-100. The solubilized proteins were passed through the peptide affinity column (total volume, 500 μL) followed by extensive washes with buffer. Retained proteins were eluted either with 100 mM solution of the same peptide as that immobilized on the column or with a wash of 0.1 N HCl-Glycine, pH 2.2. The eluates were analyzed by SDS PAGE and proteins observed in the gels were identified by LC/MS/MS.

[3] = test system: prostate cancer cells (CaP); assay: Prostate cancer (CaP) cell adhesion to BMEC, cell line not distinguished; assay type: cell-based; conditions: for Effect on CaP cell adhesion to BMEC: LNCaP compared to C4-2, FIG. 8, preliminary results
Protocol: FIG. 8 is a graphic representation of the effects of various peptides on altering cellular adhesion to BMEC cells in vitro. LNCaP cells were compared directly to C4-2 cells for the ability of specific phage-derived peptides to alter cellular adhesion to BMEC cells in vitro. Adhesion was measured at […]. C=control (no peptide). The ordinate represents percent of acid precipitable counts bound and the abscissa indicated the cells treated and the peptides used.
The phage-derived bone-targeting peptides isolated by biopanning were tested for their ability to alter the adhesion of prostate cancer cells to a human bone marrow endothelial cell line (see FIG. 8). In this assay, LNCaP cells were compared directly to the more metastatic, bone colonizing derivative, C4-2.
This observation will be examined further and exploited by the aims of this proposal to identify the binding partners of nucleolin in prostate cancer cells as well as to investigate bone tropic peptides as potential inhibitors of prostate cancer metastasis.

D1 cells = assay: Peptide binding to D1 bone marrow mesenchymal cells; conditions: for Binding to D1 cells: FIG. 4; for Binding to cells from the skeleton in vitro: mesenchymal cells from bone marrow (D1), or human bone marrow endothelial cells, avidin-FITC probe
From the text: (§2) Bone marrow cells isolated from mouse femur were lifted with ethylenediaminetetraacetic acid (EDTA) and trypsin, resuspended, and allowed to attach on fibronectin-coated chamber slides for Avidin-FITC staining. […] The D1 cell is a multipotential mesenchymal stem-like line that was isolated from bone marrow and shown to have the characteristics of osteoprogenitor cells. This cell line has been well established and used successfully in several in vitro and in vivo studies in our laboratory. Peptide binding to human bone marrow endothelial cells (HBME) and bovine aortic endothelial cells (BAEC) in culture was also tested using the same procedure.
The peptides were ranked based on the frequency with which they occurred in the plaques from which DNA was prepared and sequenced. Four of the sequences (L13, L19, R1, and R3) were synthesized as biotinylated peptide or as the control non biotinylated version of the sequence. […] The cells used in these experiments were mesenchymal cells from bone marrow (D1), or human bone marrow endothelial cells. An avidin-FITC probe detected the biotinylated peptide in areas of the cells in culture representing either extrusions from the cells or at the end of cell processes; structures reminiscent of adhesion plaques or footprints.

[4] = test system: Bone marrow cells isolated from mouse femur; assay: Peptide binding to bone marrow cells in culture (Avidin-FITC); set-up: key to Localization of peptide binding: Marrow (cells in culture): ✓: Check marks indicate positive binding observed with FITC; −: a dash indicates a negative result; conditions: for Localization of peptide binding: Marrow (cells in culture): FITC; for Binding to adherent cells from bone marrow blowouts: fibronectin-coated chamber slides, Avidin-FITC staining
Protocol: (§3) For localization of peptide binding to cells and tissue sections, biotinylated peptides were synthesized. Fluorescein-isothiocyanate (FITC) labeled Avidin was used to localize the peptides on cells in culture and in tissue sections in vitro by epiluminescence microscopy. In addition, the biotinylated peptides were detected at concentrations as low as 1 μM in slot blots.
as §2

[5] = test system: human bone marrow endothelial cells (HBME); assay: Peptide binding to HBME cells in culture (Avidin-FITC); set-up: key: ✓: Check marks indicate positive binding observed with FITC; −: a dash indicates a negative result
Protocol: as §3, §2

[6] = test system: bone marrow derived mesenchymal stem cells; assay: Microarray gene expression analysis of peptide-treated mesenchymal stem cells; assay type: cell-based; conditions: 100 μM/ml peptide, day 7, microarray
Protocol: For gene analysis, the bone marrow derived mesenchymal stem cells were seeded at 95,000 cells per well in a 6 well plate and maintained in culture media containing 100 μM/ml of each of the 13 peptides. The media were changed every three days. The cells were harvested at day 7, total RNA isolated using the Qiagen RNeasy kit and quantified with a spectrophotometer. After initial screening of the genes with real-time PCR, four peptides were chosen for microarray analysis: L13, L19, R1, and R3 (SEQ ID NOs: 8, 10, 11, and 13, respectively).

Substance: ASN-SER-MET-ILE-ALA-HIS-ASN-LYS-THR-ARG-MET-HIS-GLY-GLY-GLY-SER (NSMIAHNKTRMHGGGS; listed as Homo sapiens) [Peptide L7]
- Identification of binding partners by affinity chromatography: BAEC [1]: −
- Identification of binding partners by affinity chromatography: HBME [2]: −

Substance: ASN-TYR-SER-HIS-LEU-ARG-VAL-LYS-LEU-PRO-THR-PRO-GLY-GLY-GLY-SER (NYSHLRVKLPTPGGGS; listed as Homo sapiens) [Peptide R1]
- Effect on CaP cell adhesion to BMEC [3]: did not show remarkable activity
- Binding to D1 cells (D1 cells): bind to D1 cells
- Binding to cells from the skeleton in vitro (D1 cells): found to bind cells from the skeleton
- Localization of peptide binding: Marrow (cells in culture) [4]: ✓
- Binding to adherent cells from bone marrow blowouts [4]: showed detectable binding

Substance: SER-GLY-HIS-GLN-LEU-LEU-LEU-ASN-LYS-MET-PRO-ASN-GLY-GLY-GLY-SER (SGHQLLLNKMPNGGGS; listed as Homo sapiens) [Peptide L13]
- Identification of binding partners by affinity chromatography: BAEC [1]: −
- Localization of peptide binding: HBME [5]: ✓
- Concentrations at which peptide inhibits prostate cancer cell adhesion to BMEC ([3]; 50 μM and 100 μM tested): at both 50 μM and 100 μm
- Effect on CaP cell adhesion to BMEC [3]: consistent suppression of CaP cell invasion that was saturated at the doses tested; also recorded: inhibits CaP cell adhesion to bone marrow endothelial cells
- Binding to D1 cells (D1 cells): bind to D1 cells
- Binding to cells from the skeleton in vitro (D1 cells): found to bind cells from the skeleton
- Fold Change: Ameloblastin [6]: +3.73 fold
- Fold Change: Cartilage link protein 1 [6]: +2.00 fold
- Fold Change: Eph receptor A5 [6]: +4.92 fold
- Fold Change: Fibronectin 1 [6]: −2.64 fold
- Fold Change: Hypothetical protein MGC28705 [6]: +4.59 fold
- Fold Change: Neural cell adhesion molecule 2 [6]: +6.96 fold
- Fold Change: Procollagen, type I, alpha 1 [6]: +3.03 fold
- Fold Change: RIKEN cDNA 2410129E14 gene [6]: +3.03 fold
- Fold Change: Syndecan 4 [6]: +3.03 fold
- Fold Change: Thyroid hormone receptor alpha [6]: −1.23 fold
- Fold Change: v-raf-1 leukemia viral oncogene 1 [6]: +2.46 fold
- Binding partner from HBME / bone marrow endothelial cells ([2]; biotinylated peptide immobilized on avidin-agarose): nucleolin was the major component that binds
- Identification of binding partners by affinity chromatography: HBME [2]: ✓Nucleolin
- Localization of peptide binding: Marrow (cells in culture) [4]: ✓
- Binding to adherent cells from bone marrow blowouts [4]: showed detectable binding

Reference: patent US7871978B2, “Bone tropic peptides” (University of Virginia Patent Foundation, priority 2004, dated 2011)
